Literature values, collected in patent US9399681B2, “Amatoxin-conjugates with improved linkers” (Heldelberg Pharma GmbH, priority 2010, dated 2016).

Target: DNA-dependent RNA polymerase II of mammalian cells (Homo sapiens, UniProt P24928)
Conditions: background statement, non-covalent complex; read-out: KD of the complex between amanitin and RNA-polymerase II

## amanitin
  Kd: 3 nM
